Where two headings read alike, the source gives them in different places.
How the values were obtained:
[1] = Anxiolytic and antiaggressive properties and separation from sedation (general statements); conditions: in vivo
[2] = "Electrically-provoked combat" test (anxiolytic action); assay type: in vivo, mouse; conditions: Mus musculus, 0.5 h; 71 mg/kg, mice, 30 min before test; read-out: % of decrease in number of combats
Excerpt: Under certain conditions, a pair of mice reacts to an electric stimulus by a series of combats which are provoked by the anxiety felt by the animals as a result of the electric shock. This anxiety is expressed by a combat with the other animal which is rendered responsible. For this reason, the test described hereunder can be considered as a means of evaluating the anxiolytic action of a compound. Two mice which have been previously on a diet consisting only of water are placed together in a cage. They are then submitted to a series of electric impulses of an intensity varying between 40 and 80 volts according to the sensitivity of the animals. The test is first carried out with untreated animals as controls and then with the same animals treated 30 minutes before the test with a dose of the compound to be studied.
Note is taken on the number of combats engaged. The results are expressed in percentage of decrease in the number of combats engaged by the treated animals in comparison with the number of combats registered before treatment.

[3] = rota rod test (neurotoxicity); assay type: in vivo, mouse; conditions: 370 mg/kg oral, mice, 30 min after administration
Experimental: The test used was that known as the rota rod test described by BOISSIER (Therapie 1958 XIII pp. 1074-1118).
This test aims at determining the ability of mice to coordinate their movements by seeing to what extent they can remain on a roller turning at a rate of 4 revolutions per minute for two minutes. The trial was carried out thirty minutes after administration by oral route of the compound to be studied and the percentage of failures was noted.
The value of this test is twofold. Failure on the part of the animals gives a very early indication of the slightest damage to the meuromuscular functions which cannot be discerned by any other means. Secondly, this test serves as an element of comparison for drawing up index figures involving the results obtained with other tests.

[4] = Action with respect to tremorine (cholinolytic properties); assay type: in vivo, mouse; conditions: 170 mg/kg oral, mice, 30 min before 100 mg/kg i.p. tremorine
Experimental: This test has been described by EVERETT (Nature, 1956, 177-238)
When injected into mice, tremorine produces peripheral cholinergic effects i.e. weeping, hypersalivation, sedation, diarrhea as well as central cholinergic effects i.e. tremors, akinesia.
Batches of 10 mice separated into individual cages, were given the compound to be studied, by oral route, 30 minutes before administration of an intraperitoneal dose of 100 mg/kg of tremorine.
Note was then taken in each batch of the percentage of animals presenting the various symptoms of tremorine-induced poisoning since at such a dose of tremorine 100% of the control animals are poisoned.
The results hereunder are expressed in percentage of mice protected against tremor at the dose of the compound of the invention which was administered: […]

[5] = Action on the pentylenetetrazole-induced seizure (anticonvulsant activity); assay type: in vivo, mouse
Experimental: The purpose of this test which is carried out on mice is to determine whether the compounds of the invention, when given preventively by oral route, are capable at certain doses of protecting some of the animals against the epileptic seizure produced by a predetermined dose of pentylenetetrazole which would be 100% fatal in the absence of the compound.
The compound to be studied was administered fifteen minutes before an injection of 125 mg/kg of pentylenetetrazole and note was taken of the number of deaths occurring during the three hours following this injection. The results were expressed in percentage of protection of the animals against death at the dose studied.

[6] = Four plates test (anxiolytic action); assay type: in vivo, mouse; conditions: 0.5 h; 105 mg/kg oral, mouse, 30 min after administration; read-out: % of protection against anxiety
Excerpt: This test, which is specific to the anxiolytics, was undertaken with the mouse, thirty minutes after the oral administration of the compound to be studied.
It consists in placing mice in a box with fairly high walls, of which the bottom comprises four square plates. These plates, which all have the same dimensions, are separated from each other by a central axis and are alternately electrified by the positive and negative poles of a source of electric current. There is a space of a few millimeters between adjacent plates.
The mouse placed in this apparatus explores it and thus passes over the different plates in succession. Note is taken of the number of times each animal passes over the plates during one minute. When the current is switched on, the mouse passing over the plates receives an electric shock (80 V), which provokes a gradual decrease in the exploratory movements, and finally brings the animals to a complete stop.
Anxiolytic agents enable the animals to become more or less indifferent to the electric shock.
The percentage of protection against anxiety given by compounds of the invention was calculated by comparing the number of times the control animals passed over the plates when electrified with the number of times the treated animals passed over the electrified plates.

[7] = cited from earlier work
[8] = Arch. Int. Pharmacodyn 219, 104-115 (1976)

CCCC(CCC)(CCC)NC(=O)NC(C)=O [1-(1,1-di-n-propyl-n-butyl)-3-acetyl-urea]
anxiolytic and antiaggressive activity (in words) [1]: inactive or practically devoid of any anxiolytic or antiaggressive activity

CCCC(CCC)(CCC)NC(=O)NC(=O)c1ccccc1 [1-(1,1-di-n-propyl-n-butyl)-3-benzoyl-urea]
anxiolytic and antiaggressive activity (in words) [1]: inactive or practically devoid of any anxiolytic or antiaggressive activity

C#CC(CC)(CC)NC(N)=O [Compound C, 1-(1,1-Diethyl-2-propynyl)-urea]
inhibition in vivo at 71 mg/kg [2]: 50%
% of failures in rota rod test [3]: 50%
% of protection against tremor [4]: 0%
responders at 70 mg/kg ([5]; Mus musculus, po, 3 h, read-out: % of protection against death): 50%
anticonvulsant activity (in words) ([5]; pentylenetetrazole-induced seizure, mice, oral): considerable
inhibition in vivo at 105 mg/kg [6]: 50%

CCCCNC(N)=O [n-butyl-urea]
pharmacological properties (in words) ([7]; Arch. Int. Pharmacodyn 208, 204-212 (1974)): properties similar to those cited hereabove with respect to tert-butyl-urea

CC(C)(C)NC(N)=O [tert-butyl-urea]
pharmacological properties (in words) [7, 8]: anticonvulsant, hypnotic and sedative properties
potentiation of hypnotic effects of the barbiturates [7, 8]: potentiator of the hypnotic effects of the barbiturates
